Source: patent publication US5254565A, “Quinoline derivatives, their production and use” (priority 1988, dated 1993)

Target: T1, Acyl-CoA : cholesterol acyltransferase (ACAT) (Rattus norvegicus, UniProt Q7TQM4)
T1 construct: from the mucosal microsome fraction of the small intestine of male, 6-week old Sprague-Dawley rats; from tissue; host or cells: mucosal microsome fraction of the small intestine of male 6-week old Sprague-Dawley rats, fasted for 20 hours
T1 sequence (Q7TQM4 1-524): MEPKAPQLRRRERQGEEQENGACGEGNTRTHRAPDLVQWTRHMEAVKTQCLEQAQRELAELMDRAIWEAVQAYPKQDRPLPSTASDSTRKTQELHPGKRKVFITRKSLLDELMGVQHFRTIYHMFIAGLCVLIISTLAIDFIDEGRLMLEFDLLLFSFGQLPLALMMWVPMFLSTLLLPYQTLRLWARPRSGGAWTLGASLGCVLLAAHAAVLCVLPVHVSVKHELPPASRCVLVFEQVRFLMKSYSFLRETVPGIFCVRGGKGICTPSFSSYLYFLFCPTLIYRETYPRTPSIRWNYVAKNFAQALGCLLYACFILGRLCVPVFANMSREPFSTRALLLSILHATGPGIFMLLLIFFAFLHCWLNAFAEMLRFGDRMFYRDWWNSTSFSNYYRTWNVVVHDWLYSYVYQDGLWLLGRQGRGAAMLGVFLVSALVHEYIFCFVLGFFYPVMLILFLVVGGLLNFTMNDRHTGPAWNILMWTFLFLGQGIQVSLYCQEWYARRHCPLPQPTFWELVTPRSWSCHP
Experiment: Acyl-CoA : cholesterol acyltransferase (ACAT) inhibitory activity: production of labeled cholesterol ester from [1-^14 C] oleoyl-CoA and endogenous cholesterol
Type: biochemical
Settings: not given
Protocol: 1. Acyl-CoA : cholesterol acyltransferase (ACAT) inhibitory activity.
The enzyme ACAT was prepared by the method of Heider et al. described in Journal of Lipid Research, Vol. 24, page 1127 (1982), from the mucosal microsome fraction of the small intestine of male, 6-week old Sprague-Dawley rats which had been fasted for 20 hours.
ACAT activity was calculated by the method of Helgerud et al. described in Journal of Lipid Research, Vol. 22, page 271 (1981), namely, by measuring the amount of the labeled cholesterol ester produced from [1-^14 C] oleoyl-CoA and endogenous cholesterol.
Inhibition rates (%) of the production of the labeled cholesterol ester wherein 10^-6 M-10^-8 M of test compounds were added are shown as an index of ACAT inhibitory activity in Table 1.

Q: Which “ACAT inhibitory activity (in words)” value does the source give for O=C(Nc1ccc(Cl)cc1)Nc1cnc2ccc(Cl)cc2c1-c1ccccc1 [Compound B, 6-chloro-3-[3-(4-chlorophenyl)ureido]-4-phenylquinoline, reference compound] here?
A: The value was “excellent ACAT inhibitory activities”.

Same assay, conditions: 10^-6 M test compound; read-out: ACAT Inhibition Rate

Q: With O=C(Nc1ccc(Cl)cc1)Nc1cnc2ccc(Cl)cc2c1-c1ccccc1 [Compound B, 6-chloro-3-[3-(4-chlorophenyl)ureido]-4-phenylquinoline, reference compound] as the compound, how does the inhibition at 1 µM read?
A: The inhibition at 1 µM was 54.5%.

Q: With O=C(Nc1ccc(F)cc1F)Nc1cnc2ccc(Cl)cc2c1-c1ccccc1 [Example 1, 6-chloro-3-[3-(2,4-difluorophenyl)ureido]-4-phenylquinoline] as the compound, how does the inhibition at 1 µM read?
A: The inhibition at 1 µM was 88.3%.

Q: Which inhibition at 1 µM does the source give for O=C(Nc1ccccc1F)Nc1cnc2ccc(Cl)cc2c1-c1ccccc1 [Example 4, 6-Chloro-3-[3-(2-fluorophenyl)ureido]-4-phenylquinoline] here?
A: Its inhibition at 1 µM is 75%.

Q: With O=C(Nc1ccc(F)cc1F)Nc1cnc2ccc(Br)cc2c1-c1ccccc1 [Example 11, 6-Bromo-3-[3-(2,4-difluorophenyl)ureido]-4-phenylquinoline] as the compound, how does the inhibition at 1 µM read?
A: Its inhibition at 1 µM is 85.5%.

Q: How did the inhibition at 1 µM turn out when Cc1ccc2ncc(NC(=O)Nc3ccc(F)cc3F)c(-c3ccccc3)c2c1 [Example 13, 3-[3-(2,4-Difluorophenyl)ureido]-6-methyl-4-phenylquinoline] was run?
A: Its inhibition at 1 µM is 84.5%.

Q: How did the inhibition at 1 µM turn out when CCc1ccc2ncc(NC(=O)Nc3ccc(F)cc3F)c(-c3ccccc3)c2c1 [Example 14, 3-[3-(2,4-Difluorophenyl)ureido]-6-ethyl-4-phenylquinoline] was run?
A: The inhibition at 1 µM was 90.1%.

Q: CC(C)c1ccc2ncc(NC(=O)Nc3ccc(F)cc3F)c(-c3ccccc3)c2c1 [Example 15, 3-[3-(2,4-Difluorophenyl)ureido]-6-isopropyl-4-phenylquinoline] was tested. Which inhibition at 1 µM did it give?
A: The inhibition at 1 µM was 91.6%.

Q: How did the inhibition at 1 µM turn out when O=C(Nc1ccc(F)cc1F)Nc1cnc2ccc(C(F)(F)F)cc2c1-c1ccccc1 [Example 17, 3-[3-(2,4-Difluorophenyl)ureido]-4-phenyl-6-trifluoromethylquinoline] was run?
A: Its inhibition at 1 µM is 90.1%.

Q: With COc1ccc2ncc(NC(=O)Nc3ccc(F)cc3F)c(-c3ccccc3)c2c1 [Example 18, 3-[3-(2,4-Difluorophenyl)ureido]-6-methoxy-4-phenylquinoline] as the compound, how does the inhibition at 1 µM read?
A: Its inhibition at 1 µM is 85.9%.

Q: O=C(Nc1ccc(F)cc1F)Nc1cnc2ccccc2c1-c1ccccc1Cl [Example 21, 4-(2-Chlorophenyl)-3-[3-(2,4-difluorophenyl)ureido]quinoline] was tested. Which inhibition at 1 µM did it give?
A: The inhibition at 1 µM was 91.8%.

Q: How did the inhibition at 1 µM turn out when O=C(Nc1ccc(F)cc1F)Nc1cnc2ccc(Cl)cc2c1-c1ccccc1F [Example 22, 6-Chloro-3-[3-(2,4-difluorophenyl)ureido]-4-(2-fluorophenyl)quinoline] was run?
A: The inhibition at 1 µM was 96.8%.

Q: O=C(Nc1ccc(F)cc1F)Nc1cnc2ccc(Cl)cc2c1-c1cccc(Cl)c1 [Example 24, 6-Chloro-4-(3-chlorophenyl)-3-[3-(2,4-difluorophenyl)ureido]quinoline] was tested. Which inhibition at 1 µM did it give?
A: Its inhibition at 1 µM is 88.5%.

Q: O=C(Nc1ccc(F)cc1F)Nc1cnc2ccc(Cl)cc2c1-c1ccc(Cl)cc1 [Example 25, 6-Chloro-4-(4-chlorophenyl)-3-[3-(2,4-difluorophenyl)ureido]quinoline] was tested. Which inhibition at 1 µM did it give?
A: Its inhibition at 1 µM is 77%.

Q: For Cc1ccc(-c2c(NC(=O)Nc3ccc(F)cc3F)cnc3ccc(Cl)cc23)cc1 [Example 26, 6-Chloro-3-[3-(2,4-difluorophenyl)ureido]-4-(4-methylpheynyl)quinoline], which inhibition at 1 µM is on record?
A: The inhibition at 1 µM was 87.4%.

Q: Which inhibition at 1 µM does the source give for Cc1ccccc1-c1c(NC(=O)Nc2ccc(F)cc2F)cnc2ccc(Cl)cc12 [Example 27, 6-Chloro-3-[3-(2,4-difluorophenyl)ureido]-4-(2-methylphenyl)quinoline] here?
A: The inhibition at 1 µM was 97.2%.

Q: With COc1ccc(-c2c(NC(=O)Nc3ccc(F)cc3F)cnc3ccc(Cl)cc23)cc1 [Example 28, 6-Chloro-3-[3-(2,4-difluorophenyl)ureido]-4-(4-methoxyphenyl)quinoline] as the compound, how does the inhibition at 1 µM read?
A: The inhibition at 1 µM was 92.7%.

Q: COc1ccccc1-c1c(NC(=O)Nc2ccc(F)cc2F)cnc2ccc(Cl)cc12 [Example 29] was tested. Which inhibition at 1 µM did it give?
A: Its inhibition at 1 µM is 98.2%.

Q: With Cc1ccc2ncc(NC(=O)Nc3ccc(F)cc3F)c(-c3ccccc3C)c2c1 [Example 31, 3-[3-(2,4-Difluorophenyl)ureido]-6-methyl-4-(2-methylphenyl)quinoline] as the compound, how does the inhibition at 1 µM read?
A: The inhibition at 1 µM was 96.9%.

Q: Which inhibition at 1 µM does the source give for CCc1ccc2ncc(NC(=O)Nc3ccc(F)cc3F)c(-c3ccccc3Cl)c2c1 [Example 33, 4-(2-Chlorophenyl)-3-[3-(2,4-difluorophenyl)ureido]-6-ethylquinoline] here?
A: Its inhibition at 1 µM is 99.2%.

Q: How did the inhibition at 1 µM turn out when CC(C)c1ccc2ncc(NC(=O)Nc3ccc(F)cc3F)c(-c3ccccc3Cl)c2c1 [Example 34, 4-(2-Chlorophenyl)-3-[3-(2,4-difluorophenyl)ureido]-6-isopropylquinoline] was run?
A: The inhibition at 1 µM was 99.3%.

Q: Which inhibition at 1 µM does the source give for CCCCc1ccc2ncc(NC(=O)Nc3ccc(F)cc3F)c(-c3ccccc3Cl)c2c1 [Example 35, 6-Butyl-4-(2-chlorophenyl)-3-[3-(2,4-difluorophenyl)ureido]quinoline] here?
A: Its inhibition at 1 µM is 97%.

Q: With O=C(Nc1ccc(F)cc1F)Nc1cnc2ccc(F)cc2c1-c1ccccc1Cl [Example 36, 4-(2-Chlorophenyl)-3-[3-(2,4-difluorophenyl)ureido]-6-fluoroquinoline] as the compound, how does the inhibition at 1 µM read?
A: Its inhibition at 1 µM is 95.6%.

Q: How did the inhibition at 1 µM turn out when CSc1ccc2ncc(NC(=O)Nc3ccc(F)cc3F)c(-c3ccccc3)c2c1 [Example 37, 3-[3-(2,4-Difluorophenyl)ureido]-6-methylthio-4-phenylquinoline] was run?
A: Its inhibition at 1 µM is 87.8%.

Q: For Cc1cc(Cl)cc2c(-c3ccccc3Cl)c(NC(=O)Nc3ccc(F)cc3F)cnc12 [Example 38, 6-Chloro-4-(2-chlorophenyl)-3-[3-(2,4-difluorophenyl)ureido]-8-methylquinoline], which inhibition at 1 µM is on record?
A: The inhibition at 1 µM was 98.3%.

Q: With Cc1cc(C)c2ncc(NC(=O)Nc3ccc(F)cc3F)c(-c3ccccc3C)c2c1 [Example 39, 3-[3-(2,4-Difluorophenyl)ureido]-6,8-dimethyl-4-(2-methylphenyl)quinoline] as the compound, how does the inhibition at 1 µM read?
A: Its inhibition at 1 µM is 98.5%.

Q: Which inhibition at 1 µM does the source give for O=C(Nc1cnc2ccc(Cl)cc2c1-c1ccccc1)Nc1c(F)cccc1F [Example 46, 6-chloro-3-[3-(2,6-difluorophenyl)ureido]-4-phenylquinoline] here?
A: Its inhibition at 1 µM is 75.7%.

Q: O=C(Nc1ccc(Cl)cc1)Nc1cnc2ccc(Cl)cc2c1-c1ccccc1Cl [Example 50, 6-Chloro-4-(2-Chlorophenyl)-3-[3-(4-chlorophenyl)ureido]quinoline] was tested. Which inhibition at 1 µM did it give?
A: Its inhibition at 1 µM is 96.8%.

Q: Cc1cc(C)c2ncc(NC(=O)Nc3ccc(Cl)cc3)c(-c3ccccc3Cl)c2c1 [Example 51, 4-(2-Chlorophenyl)-3-[3-(4-chlorophenyl)ureido]-6,8-dimethylquinoline] was tested. Which inhibition at 1 µM did it give?
A: Its inhibition at 1 µM is 97.2%.

Q: With CSc1ccccc1-c1c(NC(=O)Nc2ccc(F)cc2F)cnc2ccc(Cl)cc12 [Example 52, 6-Chloro-3-[3-(2,4-difluorophenyl)ureido]-4-(2-methylthiophenyl)quinoline] as the compound, how does the inhibition at 1 µM read?
A: Its inhibition at 1 µM is 97.9%.

Q: How did the inhibition at 1 µM turn out when O=C(Nc1ccc(F)cc1F)Nc1cnc2ccc(SC(F)F)cc2c1-c1ccccc1 [Example 53, 6-Difluoromethylthio-3-[3-(2,4-difluorophenyl)ureido]-4-phenylquinoline] was run?
A: Its inhibition at 1 µM is 85.7%.

Q: With O=C(Nc1ccc(F)cc1F)Nc1cnc2ccc(OC(F)F)cc2c1-c1ccccc1 [Example 54, 6-Difluoromethoxy-3-[3-(2,4-difluorophenyl)ureido]-4 4-phenylquinoline] as the compound, how does the inhibition at 1 µM read?
A: Its inhibition at 1 µM is 80.7%.

Q: For Cc1cc(Cl)c2ncc(NC(=O)Nc3ccc(F)cc3F)c(-c3ccccc3Cl)c2c1 [Example 55, 8-Chloro-4-(2-chlorophenyl)-3-[3-(2,4-difluorophenyl)ureido]-6-methylquinoline], which inhibition at 1 µM is on record?
A: The inhibition at 1 µM was 97.6%.

Q: Which inhibition at 1 µM does the source give for Cc1ccccc1-c1c(NC(=O)Nc2ccc(F)c([N+](=O)[O-])c2)cnc2ccc(Cl)cc12 [Example 58, 6-Chloro-3-[3-(4-fluoro-3-nitrophenyl)ureido]-4-(2-methylphenyl)quinoline] here?
A: The inhibition at 1 µM was 88.5%.

Q: CSc1ccccc1-c1c(NC(=O)Nc2ccc(F)cc2F)cnc2ccc(C)cc12 [Example 59, 3-[3-(2,4-Difluorophenyl)ureido]-6-mehtyl-4-(2-mehtylthiophenyl)quinoline] was tested. Which inhibition at 1 µM did it give?
A: Its inhibition at 1 µM is 97.5%.

Q: COc1ccc(-c2c(NC(=O)Nc3ccc(F)cc3F)cnc3ccc(Cl)cc23)cc1OC [Example 60, 6-Chloro-3-[3-(2,4-difluorophenyl)ureido]-4-(3,4-dimethoxyphenyl)quinoline] was tested. Which inhibition at 1 µM did it give?
A: The inhibition at 1 µM was 95.1%.

Q: Cc1cc(C)c2ncc(NC(=O)Nc3c(F)cc(F)cc3F)c(-c3ccccc3Cl)c2c1 [Example 62, 4-(2-chlorophenyl)-6,8-dimethyl-3-[3-(2,4,6-trifluorophenyl)ureido]quinoline] was tested. Which inhibition at 1 µM did it give?
A: The inhibition at 1 µM was 97.3%.

Q: Cc1cc(C)c2c(c1)c(-c1ccccc1Cl)c(NC(=O)Nc1ccc(F)cc1F)c[n+]2[O-] [Example 63, 4-(2-chlorophenyl)-3-[3-(2,4-difluorophenyl)ureido]-6,8-dimethylquinoline 1-oxide] was tested. Which inhibition at 1 µM did it give?
A: Its inhibition at 1 µM is 94.4%.

Same assay, conditions: 10^-8 M test compound; read-out: ACAT Inhibition Rate

Q: How did the inhibition at 0.01 µM turn out when Cc1cc(C)c2ncc(NC(=O)Nc3ccc(F)cc3F)c(-c3ccccc3C)c2c1 [Example 39, 3-[3-(2,4-Difluorophenyl)ureido]-6,8-dimethyl-4-(2-methylphenyl)quinoline] was run?
A: The inhibition at 0.01 µM was 43.3%.

Same assay, conditions: listed as compound B

Q: O=C(Nc1ccc(Cl)cc1)Nc1cnc2ccc(Cl)cc2c1-c1ccccc1 [Compound B, 6-chloro-3-[3-(4-chlorophenyl)ureido]-4-phenylquinoline, reference compound] was tested. Which “ACAT inhibitory activity (in words)” value did it give?
A: Its value is “strong ACAT inhibitory activity”.
